# Laboratory results reported in patent US20130143929A1, “FUNGICIDAL IMIDAZOLES” (EI DU PONT DE NEMOURS AND COMPANY, priority 2010, published 2013).
# Marks after values point to notes of the source that are not given here.
# Key:
# Format in all cases: in vivo
# [1] = test system: Puccinia recondite f. sp. tritici (the causal agent of wheat leaf rust); test: Test A: wheat leaf rust, preventive spray on wheat seedlings, visual disease rating; details: for Test A rating (100 = 100% disease control, 0 = no disease control relative to the controls): wheat leaf rust, preventive spray on wheat seedlings
# How it was run: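 Wheat seedlings were sprayed to run-off with compound suspended in acetone/water containing 250 ppm Trem 014 (200 ppm ≈ 800 g/ha; some at 40 ppm). Puccinia recondite spores were inoculated the next day. Plants were held 24 h saturated at 20° C, then 7 days at 20° C, and disease control was rated visually on a 0–100 scale against controls.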
# [2] = test system: Septoria tritici (the causal agent of wheat leaf blotch); test: Test B: wheat leaf blotch, preventive spray on wheat seedlings, visual disease rating; details: for Test B rating (100 = 100% disease control, 0 = no disease control relative to the controls): wheat leaf blotch, preventive spray on wheat seedlings
# How it was run: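 Wheat seedlings sprayed to run-off with compound suspension (acetone/water with 250 ppm Trem 014; 200 ppm ≈ 800 g/ha, some at 40 ppm), inoculated next day with Septoria tritici spores. 48 h saturated humidity at 24 °C, then 19 days at 20 °C; visual rating, 100 = full control.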
# [3] = test system: Botrytis cinerea (the causal agent of tomato Botrytis); test: Test C: tomato Botrytis, preventive spray on tomato seedlings, visual disease rating; details: for Test C rating (100 = 100% disease control, 0 = no disease control relative to the controls): tomato Botrytis, preventive spray on tomato seedlings
# How it was run: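 Test suspension (acetone/water with 250 ppm Trem 014; 200 ppm equivalent to 800 g/ha) sprayed to run-off on tomato seedlings; B. cinerea spores inoculated next day. After 48 h saturated humidity at 20° C then 3 days at 24° C, disease rated visually as % control relative to untreated controls (0–100).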
# [4] = test system: Blumeria graminis f. sp. tritici (also known as Erysiphe graminis f. sp. tritici, the causal agent of wheat powdery mildew); test: Test D: wheat powdery mildew, preventive spray on wheat seedlings, visual disease rating; details: for Test D rating (100 = 100% disease control, 0 = no disease control relative to the controls): wheat powdery mildew, preventive spray on wheat seedlings
# How it was run: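 Compound suspended in acetone/water (50/50) with 250 ppm Trem 014 and sprayed to run-off on wheat seedlings (200 ppm ≈ 800 g/ha), then inoculated next day with spore dust. Disease rated visually after 8 days at 20 °C as % control relative to untreated plants (0-100).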
# [5] = asterisk: 40 ppm test suspension
# [6] = no asterisk (standard test suspension concentration, not 40 ppm)
# [7] = no asterisk: standard test suspension concentration, 100 = 100% disease control, 0 = no control relative to controls
compound,measurement,setting,value
COc1ccc(C(O)c2c(Br)nc(C)n2-c2ccc(F)cc2F)c(F)c1 (racemic) [compound 284],"Test A rating (100 = 100% disease control, 0 = no disease control relative to the controls)",[1]; [5],100* %
same,"Test B rating (100 = 100% disease control, 0 = no disease control relative to the controls)",[2]; [5],100* %
same,"Test C rating (100 = 100% disease control, 0 = no disease control relative to the controls)",[3]; [5],41* %
same,"Test D rating (100 = 100% disease control, 0 = no disease control relative to the controls)",[4]; [5],0* %
COc1cc(F)c(C(O)c2c(Cl)nc(C)n2-c2c(F)cccc2F)c(F)c1 (stereo not drawn) [compound 192],"Test A rating (100 = 100% disease control, 0 = no disease control relative to the controls)",[1]; [5],100* %
same,"Test B rating (100 = 100% disease control, 0 = no disease control relative to the controls)",[2]; [5],100* %
same,"Test C rating (100 = 100% disease control, 0 = no disease control relative to the controls)",[3]; [5],100* %
same,"Test D rating (100 = 100% disease control, 0 = no disease control relative to the controls)",[4]; [5],53* %
COc1ccc(C(O)c2cnc(C)n2-c2ccc(F)cc2Cl)c(F)c1 (racemic) [compound 300],"Test A rating (100 = 100% disease control, 0 = no disease control relative to the controls)",[1]; [5],95* %
same,"Test B rating (100 = 100% disease control, 0 = no disease control relative to the controls)",[2]; [5],95* %
same,"Test C rating (100 = 100% disease control, 0 = no disease control relative to the controls)",[3]; [5],0* %
same,"Test D rating (100 = 100% disease control, 0 = no disease control relative to the controls)",[4]; [5],0* %
COc1ccc(-n2c(Cl)nc(Cl)c2C(O)c2c(F)cc(F)cc2F)c(F)c1 (stereo not drawn) [compound 327],"Test A rating (100 = 100% disease control, 0 = no disease control relative to the controls)",[1]; [5],100* %
same,"Test B rating (100 = 100% disease control, 0 = no disease control relative to the controls)",[2]; [5],100* %
same,"Test C rating (100 = 100% disease control, 0 = no disease control relative to the controls)",[3]; [5],100* %
same,"Test D rating (100 = 100% disease control, 0 = no disease control relative to the controls)",[4]; [5],29* %
Cc1ncc(C(O)c2cccnc2)n1-c1c(F)cc(F)cc1F (stereo not drawn) [compound 181],"Test A rating (100 = 100% disease control, 0 = no disease control relative to the controls)",[1]; [6],0%
same,"Test B rating (100 = 100% disease control, 0 = no disease control relative to the controls)",[2]; [6],1%
same,"Test C rating (100 = 100% disease control, 0 = no disease control relative to the controls)",[3]; [6],0%
same,"Test D rating (100 = 100% disease control, 0 = no disease control relative to the controls)",[4]; [6],0%
Cc1cc(F)ccc1C(O)c1cnc(C)n1-c1ccc(F)cc1F (stereo not drawn) [compound 415],"Test A rating (% disease control, wheat leaf rust)",[1]; [7],74%
same,"Test B rating (% disease control, wheat leaf blotch)",[2]; [7],18%
same,"Test C rating (% disease control, tomato Botrytis)",[3]; [7],0%
same,"Test D rating (% disease control, wheat powdery mildew)",[4]; [7],0%
"OC(c1ccc(F)cc1F)c1c(Cl)nc(Cl)n1-c1ccc(Cl)cc1Cl (single isomer, unassigned) [compound 21]","Test A rating (100 = 100% disease control, 0 = no disease control relative to the controls)",[1]; [6],100%
same,"Test B rating (100 = 100% disease control, 0 = no disease control relative to the controls)",[2]; [6],100%
same,"Test C rating (100 = 100% disease control, 0 = no disease control relative to the controls)",[3]; [6],100%
same,"Test D rating (100 = 100% disease control, 0 = no disease control relative to the controls)",[4]; [6],69%
Cc1cccc(Cl)c1-n1c(C)nc(Cl)c1C(O)c1ccc(F)cc1Cl (stereo not drawn) [compound 344],"Test A rating (100 = 100% disease control, 0 = no disease control relative to the controls)",[1]; [5],99* %
same,"Test B rating (100 = 100% disease control, 0 = no disease control relative to the controls)",[2]; [5],95* %
same,"Test C rating (100 = 100% disease control, 0 = no disease control relative to the controls)",[3]; [5],54* %
same,"Test D rating (100 = 100% disease control, 0 = no disease control relative to the controls)",[4]; [5],72* %
Cc1nc(Cl)c(C(O)c2ccc(F)cc2Cl)n1-c1ccc(F)cc1Br (stereo not drawn) [compound 130],"Test A rating (100 = 100% disease control, 0 = no disease control relative to the controls)",[1]; [6],99%
same,"Test B rating (100 = 100% disease control, 0 = no disease control relative to the controls)",[2]; [6],100%
same,"Test C rating (100 = 100% disease control, 0 = no disease control relative to the controls)",[3]; [5],87* %
same,"Test D rating (100 = 100% disease control, 0 = no disease control relative to the controls)",[4]; [6],0%
Cc1ncc(C(O)c2ccc(F)cc2Cl)n1-c1c(F)cc(F)cc1Br (stereo not drawn) [compound 74],"Test A rating (100 = 100% disease control, 0 = no disease control relative to the controls)",[1]; [6],100%
same,"Test B rating (100 = 100% disease control, 0 = no disease control relative to the controls)",[2]; [6],100%
same,"Test C rating (100 = 100% disease control, 0 = no disease control relative to the controls)",[3]; [6],100%
same,"Test D rating (100 = 100% disease control, 0 = no disease control relative to the controls)",[4]; [6],0%
Cc1nc(Br)c(C(O)c2ccc(F)cc2Cl)n1-c1c(F)cc(F)cc1Br (stereo not drawn) [compound 136],"Test A rating (100 = 100% disease control, 0 = no disease control relative to the controls)",[1]; [6],100%
same,"Test B rating (100 = 100% disease control, 0 = no disease control relative to the controls)",[2]; [6],100%
same,"Test C rating (100 = 100% disease control, 0 = no disease control relative to the controls)",[3]; [6],100%
same,"Test D rating (100 = 100% disease control, 0 = no disease control relative to the controls)",[4]; [6],79%
Cc1nc(Br)c(C(O)c2ccc(F)cc2F)n1-c1ccc(F)cc1Br (stereo not drawn) [compound 334],"Test A rating (100 = 100% disease control, 0 = no disease control relative to the controls)",[1]; [5],99* %
same,"Test B rating (100 = 100% disease control, 0 = no disease control relative to the controls)",[2]; [5],100* %
same,"Test C rating (100 = 100% disease control, 0 = no disease control relative to the controls)",[3]; [5],99* %
same,"Test D rating (100 = 100% disease control, 0 = no disease control relative to the controls)",[4]; [5],64* %
